Laboratory results: PubChem BioAssay (NCI)
“And” between values parts separate entries of the source, which are not always exact repeats. Equal values may be shown once.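 Five concentrations, 48 hours, 96-well plates. GI50: concentration for 50% inhibition of growth. TGI denotes the concentration required for complete inhibition of growth.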

Experiments:
Assay in all cases: growth of human tumour cells (NCI), 48 h
BT-549 breast = system: BT-549 breast
COLO 205 colon = system: COLO 205 colon
HS 578T breast = system: HS 578T breast
K-562 leukemia = system: K-562 leukemia
NCI-H460 lung = system: NCI-H460 lung
OVCAR-5 ovarian = system: OVCAR-5 ovarian
RPMI-8226 leukemia = system: RPMI-8226 leukemia
SR leukemia = system: SR leukemia
T-47D breast = system: T-47D breast
UACC-257 melanoma = system: UACC-257 melanoma

Structure (SMILES) | GI50 (BT-549 breast) [µM] | TGI (BT-549 breast) [µM] | GI50 (COLO 205 colon) [µM] | TGI (COLO 205 colon) [µM] | GI50 (HS 578T breast) [µM] | TGI (HS 578T breast) [µM] | GI50 (K-562 leukemia) [µM] | TGI (K-562 leukemia) [µM] | GI50 (NCI-H460 lung) [µM] | TGI (NCI-H460 lung) | GI50 (OVCAR-5 ovarian) [µM] | TGI (OVCAR-5 ovarian) | GI50 (RPMI-8226 leukemia) [µM] | TGI (RPMI-8226 leukemia) [µM] | GI50 (SR leukemia) [µM] | TGI (SR leukemia) [µM] | GI50 (T-47D breast) [µM] | TGI (T-47D breast) [µM] | GI50 (UACC-257 melanoma) | TGI (UACC-257 melanoma)
CC1=C2[C@@H](CC1)[C@]1(C)O[C@@](C(C)C)(C[C@H]1OC(=O)CO)[C@H]2OC(=O)CCCc1ccccc1 | 4.44 | 15.7 | 6.52 | 21.8 | 2.43 | 9.23 | 5.88 | 44.7 | 9.1 | 22.9 µM | 15.7 | 30 µM | 3.08 | > 100 | 11.3 | 36.6 | 2.54 | 12.3 | 13.1 µM | 27.2 µM
CC1(C)N=c2cc3c(cc2N1c1ccc(Cl)cc1)=Nc1ccccc1N3c1ccc(Cl)cc1 | 3.5 | 60.8 | 4.66 | 21.8 | 12.2 | > 100 | 1.68 | 4.95 | 4.78 | > 100 µM | 8.13 | > 100 µM | 2.05 | 11.8 |  |  | 3.91 | > 100 | 5.52 µM | > 100 µM
CC1(C)CCc2c(c(N=Nc3ccccc3F)c3ccccc3c2O)O1 | 33.5 | > 100 | > 100 | > 100 | 28.6 | 99.7 | > 100 | > 100 | 38.3 | > 100 µM | 73.7 | > 100 µM | > 100 | > 100 |  |  | 36.9 | > 100 | > 100 µM | > 100 µM
O=C1c2ccccc2C(=O)c2c1oc1c2c(=O)[nH]c2ccc(Cl)cc21 | 0.304 | 1.31 | 10.5 | 27.6 | 0.264 | 1.37 | 0.375 | 2.01 | 0.22 | 0.489 µM | 3.44 | 14.7 µM | 0.387 | 2.64 | 0.496 | 3.94 | 0.256 | 0.981 | 1.33 µM | 3.36 µM
O=C(Nc1cccc(C(F)(F)F)c1)c1ccc(NC2=C(Cl)C(=O)N(Cc3ccccc3)C2=O)cc1 | 1.25 | 5.49 | 21.9 | 49.8 | 22.1 | > 100 | 1.46 | 12.5 | 5.91 | 57 µM | 16.3 | 34.5 µM | 2.17 | 4.88 | 0.421 | 2.82 | 12.4 | 52.7 | 27.9 µM | 58 µM
C=CCOc1ccc(N)c([N+](=O)[O-])c1 |  | > 100 |  | > 100 |  | > 100 |  | > 100 |  |  |  | > 100 µM |  | > 100 |  | > 100 |  | > 100 |  | > 100 µM
Cc1cc(=O)oc2cc3oc(N(C)c4ccccc4)nc(=O)c3cc12 |  | > 100 |  | > 100 |  | > 100 |  | > 100 |  | > 100 µM |  | > 100 µM |  | > 100 |  | > 100 |  | > 100 |  | > 100 µM
Cc1ccc2[nH]c(C(=O)NN3C(=O)C(C)SC34CCC(C)CC4)c(-c3ccccc3)c2c1 (configuration not stated) | 19.4 | 36.3 | 17.8 | 41.1 | 41.8 | > 100 | 16.2 | 61.9 | 15.7 | 43.9 µM | 17 | 34.6 µM | 11.5 | 52.6 |  |  | 19.4 | 85.7 | 19.1 µM | 44.5 µM
CC[C@H]1CCC/C=C/[C@@H]2C[C@H](O)C[C@H]2[C@H](O)/C=C/C(=O)O1 | 0.0549 | > 100 | 0.0213 | 0.0395 |  | > 100 | 0.125 | > 100 | 0.107 | > 100 µM | 0.0464 | > 100 µM | 0.0387 | 12.5 | 0.0292 | 0.115 | 0.0636 | 0.263 | 0.0802 µM | > 100 µM
CCc1cccc(NC(=O)Nc2ccc(Oc3ccc4nc(NC(=O)OC)[nH]c4c3)cc2)c1 | 8.24 | 24.4 | 6.8 | > 17.9 | 1.41 | 19.2 | 0.153 | > 25 | 3.4 | 12.4 µM | 15 | > 25 µM | 12.5 | > 25 | 0.149 | > 25 | 3.56 | > 15.6 | 3.58 µM | > 22.3 µM
Fc1ccc(-c2ncn(CCCN3CCOCC3)c2-c2ccncc2)cc1 | > 25 | > 25 | > 25 | > 25 | > 25 | > 25 | > 25 | > 25 | > 25 | > 25 µM | > 25 | > 25 µM | > 25 | > 25 | > 25 | > 25 | > 25 | > 25 | > 25 µM | > 25 µM
Cc1ccc(-c2nc(/C=N/Nc3cc(C)nc4ccc(Br)cc34)c(C)o2)cc1 | 14 | 29.3 | 2.03 | 3.97 | 17 | 38.6 | 1.93 | 4.58 | 1.94 | 3.73 µM | 1.86 | 3.36 µM | 2.05 | 4.71 | 2.67 | 7.71 | 1.94 | 3.94 | 2.13 µM | 5.02 µM
CC(C)=Cc1cccc2[nH]c(O)c(N=Nc3ccc(S(N)(=O)=O)cc3)c12 | > 22.8 | > 25 | > 9.93 | > 25 | 0.506 | 16.4 | 3.69 | > 25 | 1.32 | > 20.5 µM | > 25 | > 25 µM | 8.16 | > 25 | 0.593 | > 25 | > 25 | > 25 | > 25 µM | > 25 µM
COc1ccccc1NC(=O)CC(=O)n1nc(C)c(N=Nc2ccccc2Cl)c1C |  | > 100 |  | > 100 |  | > 100 |  | > 100 |  | > 100 µM |  | > 100 µM |  | > 100 |  | 97.9 |  | > 100 |  | > 100 µM
CN[C@@H](Cc1cccc2ccccc12)C(=O)N[C@@H](CC(C)C)B(O)O |  | 0.0243 | 0.0427 | 0.17 |  | 0.0577 | 0.0228 | 0.0952 | 0.0266 | 0.105 µM and 0.0551 µM | 0.0187 | 0.0518 µM and 0.0204 µM | 0.00547 | 0.0439 | 0.0163 | 0.281 | 0.0156 | 0.0372 | 0.0169 µM and 0.0131 µM | 0.0337 µM and 0.04 µM
COc1cc(NS(C)(=O)=O)ccc1Cc1c2ccccc2nc2ccccc12 | 0.267 | 1.97 | 0.0812 | 2.4 | 1.72 | 8.17 | 0.307 | 2.4 | < 0.012 | 1.06 µM | 1.03 | 4.17 µM | 0.377 | 3.28 |  | 0.139 | 0.0535 | 1.37 | 0.493 µM | 2.67 µM
COc1cc2c(cc1O)c(=O)n(CCN(C)C)c1c3cc4c(cc3ncc21)OCO4 | 0.025 | 0.915 | 1.52 | 15.2 | 0.366 | 26.1 | 0.019 | > 100 | < 0.01 | 0.329 µM | 0.325 | 2.82 µM | 0.0242 | 0.434 |  |  | < 0.01 | 0.0631 | 0.0451 µM | 0.285 µM
O=[N+]([O-])c1ccc(N=Nc2c(Cl)cc(O)cc2Cl)cc1 | 1.67 | 6.41 | 1.82 | 4.17 | 1.11 | 9.06 | 0.605 | > 100 | 1.41 | 4.77 µM | 4.22 | 16.5 µM |  |  | 0.421 | 6.09 | 0.657 | 5.46 | 1.65 µM | 4.49 µM
CCc1[nH]nc(C(N)=O)c1N=NN(C)C |  | > 100 |  | > 100 |  | > 100 |  | 66.7 |  |  |  |  |  | > 100 |  | 38.9 |  | > 100 |  | > 100 µM
O=C(c1ccccc1)C1OC1C(=O)c1ccccc1 (configuration not stated) | 3.28 | 14.2 | 4.94 | 15.4 | 3.01 | > 100 |  |  | 3.93 | > 100 µM | 3.86 | 25.2 µM | 3.34 | 11.6 |  |  | 3.51 | > 100 | 5.75 µM | 29.6 µM
COc1c(C)c(OC)c(C(=O)CC(C)C)c(OC)c1C |  | > 100 |  | > 100 |  | > 100 |  |  |  |  |  | > 100 µM |  | 73.1 |  | > 100 |  | > 100 |  | > 100 µM
O=c1cc(-c2ccccc2)oc2c1ccc1ccccc12 | 21 | 55.8 | 24.2 | > 100 | 23.4 | 83.2 | 49.5 | > 100 | 28.6 | > 100 µM | 50.7 | > 100 µM | 21.7 | 70.2 |  |  | 23.9 | > 100 | 54.8 µM | > 100 µM
COc1ccc(-c2cc(-c3ccc(OC)cc3)nc(NCCCNc3ccnc4cc(Cl)ccc34)n2)cc1 | 13.1 | 27.8 | 1.72 | 3.58 | 14.9 | 44.8 | 1.79 | 4.6 | 1.77 | 3.32 µM | 1.67 | 3.14 µM |  |  | 1.43 | 5.86 | 1.66 | 3.9 | 1.96 µM | 3.83 µM
O=C1c2cc3c(cc2-c2c1c1ccc(F)cc1c(=O)n2C[C@H](O)[C@H](O)[C@H](O)CO)OCO3 | 0.149 | 1.05 | 0.193 | 0.959 | 0.506 | 9.62 | 0.136 | > 100 |  |  | 0.253 | 0.866 µM | 0.505 | 5.6 |  |  | 0.0419 | 0.391 |  | 
CCCCC(OC(=O)c1ccc(N)cc1)C(=O)Nc1nc(CC(=O)OCC)cs1 (configuration not stated) | 34.5 | > 100 | 31.6 | > 100 | 43.4 | > 100 | 32.8 | > 100 |  |  | > 100 | > 100 µM | 26.7 | > 100 | 42.8 | > 100 | 38.7 | > 100 | 42.8 µM | > 100 µM
O=C(CCCC(=O)N/N=C/c1cc(Cl)ccc1O)N/N=C\c1cc(Cl)ccc1O | 7.34 | > 100 | 4.16 | > 100 | > 100 | > 100 | 2.88 | > 100 | 2.94 | > 100 µM | > 100 | > 100 µM | 4.67 | > 100 |  |  | 3.23 | > 100 | 2.71 µM | > 100 µM
CC[C@]12C=CCN3CC[C@@]4(c5ccc(OC)cc5N(C)[C@H]4[C@@](O)(C(=O)OC)[C@@H]1OC(=O)CCC(=O)O[C@H]1CC[C@H]4[C@@H]5CC[C@H]6CC(=O)CC[C@]6(C)[C@H]5CC[C@]14C)[C@@H]32 | 2.21 | > 100 |  |  | 3.65 | > 100 |  |  | 2.76 | 10.6 µM | 2.69 | > 100 µM |  |  |  |  | 2.1 | 29.7 | 3.91 µM | 16.6 µM
COc1ccc(C2=NN(C(C)=O)C(c3ccc(Oc4ccnc5cc(Cl)ccc45)c(OC)c3)C2)cc1 (configuration not stated) | 4 | > 100 |  |  | 5.15 | > 100 |  |  |  |  | > 100 | > 100 µM | > 100 | > 100 | > 100 | > 100 | 5.54 | 34.9 |  | 
